Results as given in US10738007B2, “Amide compounds as kinase inhibitors, compositions and methods of treatment” (TRANSLATIONAL DRUG DEVELOPMENT, LLC, priority 2016, dated 2020).

Tests used:
MV411 cell line = assay: Cell viability assay ([…]-GLO), MV411; type: cell-based; settings: for IC50: MV411 (ITD-FLT3+), 72 hours treatment; for FLT3-ITD+ Selectivity (K562/MV411): ratio K562/MV411
Procedure: Cell viability was measured by the […] -GlO® cell viability assay from Promega (Madison, Wis.). The […] -GlO Luminescent Cell Viability Assay is a homogeneous method to determine the number of viable cells in culture based on quantitation of the ATP present, which signals the presence of metabolically active cells. Following treatment, […] -GlO® is added to treatment wells and incubated at 37° C. Luminescence values were measured at using a Molecular Devices Spectramax microplate reader.

K562 cell line = assay: Cell viability assay ([…]-GLO), K562; type: cell-based; settings: K562 (does not express ITD-FLT3), 72 hours treatment
Procedure: Cell viability in the presence of varying concentrations of the above listed compounds at different time points was used to assess cytotoxicity and the effect of the compounds on cell proliferation.
Cell viability was measured by the […]-GlO® cell viability assay from Promega (Madison, Wis.). The […]-GlO Luminescent Cell Viability Assay is a homogeneous method to determine the number of viable cells in culture based on quantitation of the ATP present, which signals the presence of metabolically active cells. Following treatment, […]-GlO® is added to treatment wells and incubated at 37° C. Luminescence values were measured at using a Molecular Devices Spectramax microplate reader.
Cells were grown to 70% confluency, trypsinized, counted, and seeded in 96 well flat-bottom plates at a final concentration of 2.5×10^3-5×10^3 cells/well (Day 0). Cells were allowed to incubate in growth media for 24 hours. Treatment with the test agents or standard agents began on Day 1 and continued for 72 hours. At the 72-hour time point, treatment containing media was removed. Viable cell numbers were quantified by the […]-GLO® cell viability assay as described above. Results from these studies were used to calculate an IC50 value (concentration of drug that inhibits cell growth by 50 percent of control) for each compound.
For single agent and combination studies, data from each experiment was collected and expressed as % Cell Growth using the following calculation: % Cell Growth=(ftest/fvehicle)×100
Where ftest is the luminescence of the tested sample, and fvehicle is the luminescence of the vehicle in which the drug is dissolved. Dose response graphs and IC50 values were generated using Prism 6 software (GraphPad) using the following equation: Y=(Top−Bottom)/(1+10^((logIC50-X)−HillSlope))
Where X is the logarithm of the concentration and Y is the response. Y starts at the Bottom and goes to the Top with a sigmoid shape.
The experiments also evaluated the selectivity of the compounds for inhibiting growth of cancer cells carrying a mutation in the Flt3 gene. The MV411 cell line expresses the mutant allele of Flt3 with internal tandem duplications (ITD) of the gene. See Quentmeier et al., “FLT3 Mutations in Acute Myeloid Leukemia Cell Lines,” Leukemia 17(1), 2003, 120-124. […] See Grafone et al., “Monitoring of FLT3 Phosphorylation Status and Its Response to Drugs By Flow Cytometry in AML Blast Cells,” Hematol Oncol. 26(3), 2008, 159-166.

ROCK2 = ROCK2 (Homo sapiens (Human), UniProt O75116); assay: ROCK2 kinase inhibition assay (peptide phosphorylation, LABCHIP 3000); type: biochemical; settings: 7 μM ATP, 2.5 nM ROCK2, 3 hours at 25° C.
Sequence of ROCK2 (O75116 whole entry, species assumed): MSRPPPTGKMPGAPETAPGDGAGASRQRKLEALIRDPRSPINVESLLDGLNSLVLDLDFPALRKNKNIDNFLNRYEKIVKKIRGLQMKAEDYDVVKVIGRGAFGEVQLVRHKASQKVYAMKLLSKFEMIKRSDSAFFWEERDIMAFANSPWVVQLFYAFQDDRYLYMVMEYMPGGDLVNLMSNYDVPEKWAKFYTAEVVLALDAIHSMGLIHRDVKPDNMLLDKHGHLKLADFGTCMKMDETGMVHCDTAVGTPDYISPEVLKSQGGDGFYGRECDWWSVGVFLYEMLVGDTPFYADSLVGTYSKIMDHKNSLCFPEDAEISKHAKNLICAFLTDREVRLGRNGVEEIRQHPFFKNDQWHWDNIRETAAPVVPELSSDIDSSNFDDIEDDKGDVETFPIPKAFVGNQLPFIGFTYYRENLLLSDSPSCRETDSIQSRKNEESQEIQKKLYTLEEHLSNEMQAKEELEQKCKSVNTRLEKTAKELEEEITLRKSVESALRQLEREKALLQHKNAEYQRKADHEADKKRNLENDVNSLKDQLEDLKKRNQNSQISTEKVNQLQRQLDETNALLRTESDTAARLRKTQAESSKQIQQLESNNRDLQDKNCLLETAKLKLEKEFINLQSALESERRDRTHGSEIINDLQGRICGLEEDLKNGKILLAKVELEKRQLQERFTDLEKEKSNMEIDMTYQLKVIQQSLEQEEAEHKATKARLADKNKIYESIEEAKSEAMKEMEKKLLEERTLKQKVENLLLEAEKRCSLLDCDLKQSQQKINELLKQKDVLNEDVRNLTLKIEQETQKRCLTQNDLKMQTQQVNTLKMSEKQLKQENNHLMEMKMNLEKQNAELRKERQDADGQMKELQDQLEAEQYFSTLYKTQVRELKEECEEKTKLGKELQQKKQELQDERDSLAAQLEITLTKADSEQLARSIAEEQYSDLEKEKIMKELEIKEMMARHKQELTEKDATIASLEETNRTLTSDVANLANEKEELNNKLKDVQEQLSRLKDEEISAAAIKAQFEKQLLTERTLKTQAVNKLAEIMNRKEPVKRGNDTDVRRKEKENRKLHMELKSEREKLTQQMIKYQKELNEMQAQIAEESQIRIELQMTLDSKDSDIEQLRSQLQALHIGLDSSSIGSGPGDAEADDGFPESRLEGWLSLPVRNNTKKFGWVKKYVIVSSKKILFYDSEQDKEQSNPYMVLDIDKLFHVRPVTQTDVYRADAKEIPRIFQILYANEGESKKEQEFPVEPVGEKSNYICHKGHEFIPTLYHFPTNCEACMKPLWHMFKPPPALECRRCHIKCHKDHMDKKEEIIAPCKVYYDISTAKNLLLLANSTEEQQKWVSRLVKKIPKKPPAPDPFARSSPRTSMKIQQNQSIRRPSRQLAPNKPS
Procedure: The peptide is phosphorylated by the protein kinase ROCK1 or ROCK2. The ROCK1 or ROCK2 enzyme, substrate, and cofactors (ATP and Mg^2+) are combined in a well of a microtiter plate and incubated for 3 hours at 25° C. in the presence or absence of an inhibitor compound. At the end of the incubation, the reaction is quenched by the addition of an EDTA-containing buffer. The substrate and product are separated and quantified electrophoretically using the microfluidic-based LABCHIP® 3000 Drug Discovery System from Caliper Life Sciences (Hopkinton, Mass.).
The components of the assay mixture are:
10 μM Sodium Orthovanadate
10 LM Beta-Glycerophosphate
5 μM ATP (for ROCK1) or 7 μM ATP (for ROCK2)
3 nM ROCK1 or 2.5 nM ROCK2 enzyme
Substrate and product peptides present in each sample are separated electrophoretically using the LABCHIP® 3000 capillary electrophoresis instrument. […] Change in the relative fluorescence intensity of the substrate and product peaks is the parameter measured reflecting enzyme activity. Capillary electrophoregramms (RDA acquisition files) are analyzed using HTS Well Analyzer software (Caliper Life Sciences, Hopkinton, Mass.). The kinase activity in each sample is determined as the product to sum ratio (PSR): P/(S+P), where P is the peak height of the product peptide and S is the peak height of the substrate peptide. For each compound, enzyme activity is measured at various concentrations (12 concentrations of compound spaced by 3× dilution intervals). Negative control samples (0%-inhibition in the absence of inhibitor) and positive control samples (100%-inhibition in the presence of 20 mM EDTA) are assembled in replicates of four and are used to calculate %-inhibition values for each compound at each concentration. Percent inhibition (Pinh) is determined using the following equation: Pinh=(PSRO %−PSRinh)/(PSRO %−PSR100%)*100
where PSRinh is the product sum ratio in the presence of inhibitor, PSRO % is the average product sum ratio in the absence of inhibitor, and PSR100% is the average product sum ratio in 100%-inhibition control samples. The IC50 values of inhibitors are determined by fitting the inhibition curves (Pinh versus inhibitor concentration) by the 4-parameter sigmoidal dose-response model using XLfit 4 software (IBDS).

Structure (SMILES)	IC50 (MV411 cell line; Homo sapiens, MV4-11)	IC50 (K562 cell line; Homo sapiens)	IC50 (ROCK2)	IC50 (MV411 cell line)	IC50 (K562 cell line)	FLT3-ITD+ Selectivity (K562/MV411) (MV411 cell line)
O=C(NC1CCCC1)c1cccc([C@@H](CO)NC(=O)c2ccc(-c3ccncc3)cn2)c1 [Compound 51]	1450 nM	> 100000 nM	4.38 nM			>70
CN(C)C1CCC(NC(=O)c2cccc([C@@H](CO)NC(=O)c3ccc(-c4ccncc4)cc3)c2)CC1 (stereo partly drawn) [Compound 52]	120 nM	> 100000 nM	0.61 nM			>842
O=C(NC1CCC(F)(F)CC1)c1cccc([C@@H](CO)NC(=O)c2ccc(-c3ccncc3)cc2)c1 [Compound 53]	220 nM	> 100000 nM	0.66 nM			>459
O=C(NC1CCN(C2CC2)CC1)c1cccc([C@@H](CO)NC(=O)c2ccc(-c3ccncc3)cc2)c1 [Compound 54]	70 nM	> 100000 nM	0.54 nM			>1443
O=C(NCC1CCN(C2CC2)CC1)c1cccc([C@@H](CO)NC(=O)c2ccc(-c3ccncc3)cc2)c1 [Compound 58]	40 nM	> 100000 nM	0.44 nM			>2525
CC(C)N1CCC(CNC(=O)c2cccc([C@@H](C)NC(=O)c3ccc(-c4ccncc4)cc3)c2)CC1 [Compound 60]	40 nM	> 100000 nM	0.53 nM			>2525
O=C(NC1CCCC1)c1cccc([C@@H](CO)NC(=O)c2cc(-c3ccncc3)n[nH]2)c1 [Compound 61]	2500 nM	> 100000 nM	2.12 nM			>40
COc1cccc(CNC(=O)c2cccc([C@@H](CO)NC(=O)c3ccc(-c4ccncc4)cc3)c2)c1 [Compound 65]	70 nM	28000 nM	0.6 nM			393
O=C(NCc1cccc(F)c1)c1cccc([C@@H](CO)NC(=O)c2ccc(-c3ccncc3)cc2)c1 [Compound 75]	160 nM	33000 nM	0.5 nM			207
COc1ccc(CNC(=O)c2cccc([C@@H](CO)NC(=O)c3ccc(-c4ccncc4)cc3)c2)cc1 [Compound 85]	90 nM	33000 nM	0.6 nM			368
O=C(NC1CCCC1)c1cccc([C@@H](CO)NC(=O)c2ccc(-c3ccncc3)cc2F)c1 [Compound 86]	1700 nM	> 100000 nM	2.7 nM			>58
Cc1cc(-c2ccncc2)ccc1C(=O)N[C@H](CO)c1cccc(C(=O)NC2CCCC2)c1 [Compound 88]	8500 nM	> 100000 nM	7.5 nM			>12
COC(=O)N1CCC(NC(=O)c2cccc([C@@H](CO)NC(=O)c3ccc(-c4ccncc4)cc3)c2)CC1 [Compound 90]			0.64 nM	20 nM	> 100000 nM	>5050
O=C(NC1CCN(CC(F)(F)F)CC1)c1cccc([C@@H](CO)NC(=O)c2ccc(-c3ccncc3)cc2)c1 [Compound 92]			0.68 nM	30 nM	> 100000 nM	>3061
COc1ccc(NC(=O)c2cccc([C@@H](CO)NC(=O)c3ccc(-c4ccncc4)cc3)c2)cn1 [Compound 93]	90 nM	85000 nM	0.51 nM			935
O=C(NC1CCCC1)c1cccc([C@@H](CO)NC(=O)c2ccc(-c3cn[nH]c3)cc2F)c1 [Compound 95]	890 nM	76000 nM	2.34 nM			86
Cc1cc(-c2cn[nH]c2)ccc1C(=O)N[C@H](CO)c1cccc(C(=O)NC2CCCC2)c1 [Compound 96]	710 nM	101000 nM	53.1 nM			142
C[C@@H](NC(=O)c1ccc(-c2cn[nH]c2)cc1)c1cccc(C(=O)NC2CCCC2)c1 [Compound 97]	110 nM	17000 nM	0.74 nM			154
CCOc1cc(-c2cn[nH]c2)ccc1C(=O)N[C@H](CO)c1cccc(C(=O)NC2CCCC2)c1 [Compound 101]	80 nM	15000 nM	0.25 nM			194

Now from value to compound, other results behind:

IC50 (MV411 cell line; Homo sapiens, MV4-11)	IC50 (K562 cell line; Homo sapiens)	IC50 (ROCK2)	IC50 (MV411 cell line)	IC50 (K562 cell line)	Structure (SMILES)	FLT3-ITD+ Selectivity (K562/MV411) (MV411 cell line)
100 nM	> 100000 nM	0.33 nM			CN1CCC(NC(=O)c2cccc([C@@H](CO)NC(=O)c3ccc(-c4ccncc4)cc3)c2)CC1 [Compound 50]	>1010
120 nM	> 100000 nM	0.47 nM			CC(C)N1CCC(NC(=O)c2cccc([C@@H](CO)NC(=O)c3ccc(-c4ccncc4)cc3)c2)CC1 [Compound 55]	>842
90 nM	> 100000 nM	0.31 nM			CC(C)N1CCC(CNC(=O)c2cccc([C@@H](CO)NC(=O)c3ccc(-c4ccncc4)cc3)c2)CC1 [Compound 56]	>1122
90 nM	> 100000 nM	0.63 nM			CN1CCC(C)(CNC(=O)c2cccc([C@@H](CO)NC(=O)c3ccc(-c4ccncc4)cc3)c2)CC1 [Compound 57]	>1122
280 nM	> 100000 nM	0.46 nM			CCN1CCC(CNC(=O)c2cccc([C@@H](CO)NC(=O)c3ccc(-c4ccncc4)cc3)c2)CC1 [Compound 59]	>361
1030 nM	65000 nM	2.85 nM			CC(C)NC(=O)c1cccc([C@@H](CO)NC(=O)c2ccc(-c3ccncc3)cc2)c1 [Compound 62]	63
130 nM	36000 nM	0.6 nM			O=C(NCC1CCC1)c1cccc([C@@H](CO)NC(=O)c2ccc(-c3ccncc3)cc2)c1 [Compound 66]	279
2670 nM	41000 nM	9.1 nM			COCC1(NC(=O)c2cccc([C@@H](CO)NC(=O)c3ccc(-c4ccncc4)cc3)c2)CCCC1 [Compound 67]	15
150 nM	52000 nM	0.7 nM			O=C(NCC1(O)CCCCC1)c1cccc([C@@H](CO)NC(=O)c2ccc(-c3ccncc3)cc2)c1 [Compound 69]	350
910 nM	34000 nM	9 nM			CC1(NC(=O)c2cccc([C@@H](CO)NC(=O)c3ccc(-c4ccncc4)cc3)c2)CCC1 [Compound 71]	37
100 nM	89000 nM	0.5 nM			CN(C)C1(CNC(=O)c2cccc([C@@H](CO)NC(=O)c3ccc(-c4ccncc4)cc3)c2)CCCC1 [Compound 72]	891
80 nM	27000 nM	0.6 nM			COC1(CNC(=O)c2cccc([C@@H](CO)NC(=O)c3ccc(-c4ccncc4)cc3)c2)CCC1 [Compound 73]	337
9120 nM	74000 nM	27.1 nM			CN(C)CC1(NC(=O)c2cccc([C@@H](CO)NC(=O)c3ccc(-c4ccncc4)cc3)c2)CCCC1 [Compound 74]	8
270 nM	33000 nM	1.2 nM			O=C(NCC1CC1)c1cccc([C@@H](CO)NC(=O)c2ccc(-c3ccncc3)cc2)c1 [Compound 84]	123
270 nM	23000 nM	0.8 nM			COC1(CNC(=O)c2cccc([C@@H](CO)NC(=O)c3ccc(-c4ccncc4)cc3)c2)CCCC1 [Compound 87]	85
280 nM	66000 nM	0.72 nM			O=C(NCC1CCCC1)c1cccc([C@@H](CO)NC(=O)c2ccc(-c3ccncc3)cc2)c1 [Compound 89]	236
		0.57 nM	30 nM	> 100000 nM	COC(=O)N1CCC(CNC(=O)c2cccc([C@@H](CO)NC(=O)c3ccc(-c4ccncc4)cc3)c2)CC1 [Compound 91]	>4040
